Test results from patent US5217956A, “Composition and treatment with biologically active peptides and certain anions” (priority 1991, dated 1993).
No end group written: not given here.

Tests used:
[1] = tested on: Enterobacter cloacae; type: cell-based
Protocol: (§1) Approximately 1,000 bacteria were seeded into about 200 ul of trypticase soy broth. Either magainin 2 carboxy terminal amide, PGLa, or ALSKALSK ALSKALSKALSKALSK (Z-44) were added in increasing concentrations in the absence (Panel A) or presence (Panel B) of 50 mM NaF.

[2] = tested on: E. cloacae; assay: Killing of E. cloacae: viable organisms on plating after incubation in TSB; type: cell-based, Enterobacter cloacae; details: for CFU / EOP (% viable): 15 min at 37° C.
Protocol: LEGEND: Organisms were incubated in a volume of 1 ml in either trypticase soy broth alone or containing substances noted for 15 min at 37° C. An aliquot was then diluted and plated to determine number of viable organisms.

[3] = tested on: Pseudomonas aeruginosa; assay: Minimal inhibitory concentration in trypticase soy broth versus Pseudomonas aeruginosa; type: cell-based
Protocol: as §1

In the case of GMASKAGAIAGKIAKVALKAL-NH2 [PGLa], the “MINIMAL INHIBITORY CONCENTRATION” value [1] was over 250 µg/mL.
For `[F-].[Na+]` [NaF, sodium fluoride], the CFU ([2]; NaF 25 mM alone) was 10^7 and the “EOP (% viable)” value ([2]; NaF 25 mM alone) was 100%.
With GIGKFLHSAKKFGKAFVGEIMNS-NH2 [MGN2] the bacterial killing ([2]; 60 ug/ml MGN2 + 50 mM NaF, 10^7 E. cloacae in 1 ml TSB) was “all bacteria are killed”, the “potentiation of effective killing power by addition of fluoride” value ([2]; 60 ug/ml MGN2 with versus without NaF) was “over 1 million” and the CFU ([2]; peptide 60 ug/ml + NaF 25 mM) was 0. For the same compound, the “EOP (% viable)” value ([2]; peptide 60 ug/ml + NaF 25 mM) was 0%, the CFU ([2]; peptide 60 ug/ml, no NaF, 10^7 organisms in 1 ml TSB) was “about 10^6” and the CFU ([2]; peptide 60 ug/ml, no NaF, 10^7 organisms in 1 ml TSB, listed as MGN2 (NH2)) was 10^6. The “EOP (% viable)” value ([2]; peptide 60 ug/ml, no NaF) was 90%, the “MINIMAL INHIBITORY CONCENTRATION” value ([3]; Panel A: absence of NaF) was 250 to 500 µg/mL and the “MINIMAL INHIBITORY CONCENTRATION” value ([3]; Panel B: +50 mM NaF) was 60 to 125 µg/mL.
